The text below walks through data of ChEMBL document CHEMBL3045881, “(Hetero)aroyl esters of 2-(N-phthalimido)ethanol and analogues: parallel synthesis, anti-HIV-1 activity and cytotoxicity” (Med Chem Res, 2010).

The source made the active and inactive calls. The calls are words filed in the database; no cut-off is given here.

For orientation: EC50 means the midpoint of the concentration-response curve. By CC50 is commonly meant the concentration at which the toxic effect on the cells reaches its halfway point.

In data set [1] the test system is Human immunodeficiency virus 1. In words: Antiviral activity against wild type Human immunodeficiency virus 1 infected human MT4 cells assessed as inhibition of virus-induced cytopathic effect after 4 days by MTT assay. Format: functional, organism-based. Conditions: Human immunodeficiency virus 1, MT4, 96 h. In general terms: Protection from cytopathic effect is a common read-out in antiviral testing.

Data set [2] can be described thus: Cytotoxicity against mock infected Homo sapiens (human) MT4 cells assessed as cell viability by MTT assay. Format: cell-based. On the technique in general: Formazan colour is commonly taken as a measure of viable cells.
Data set [3] deals with Human immunodeficiency virus 1. In words: Antiviral activity against Human immunodeficiency virus 1 harboring reverse transcriptase Y181C mutant infected human MT4 assessed as inhibition of virus-induced cytopathic effect after 4 days by MTT assay. Format: functional, organism-based. Conditions: Human immunodeficiency virus 1, 96 h.
For data set [4], the system named is Human immunodeficiency virus 1. Nature of the data set: Antiviral activity against Human immunodeficiency virus 1 harboring reverse transcriptase K103N, Y181C double mutant infected human MT4 assessed as inhibition of virus-induced cytopathic effect after 4 days by MTT assay. Format: functional, organism-based.
Data set [5] has as its system Human immunodeficiency virus 1. In words: Antiviral activity against efavirenz-resistant Human immunodeficiency virus 1 harboring reverse transcriptase K103R, V179D, P225H triple mutant infected human MT4 assessed as inhibition of virus-induced cytopathic effect after 4 days by MTT assay. Format: functional, organism-based.

As to `CC(COC(=O)c1cc(F)ccc1F)N1C(=O)c2ccccc2C1=O` (racemic), the EC50 in data set [1] is above 100 µM. The CC50 in data set [2] is above 100 µM.
Regarding `O=C(OCCN1C(=O)c2ccccc2C1=O)c1ccccc1[N+](=O)[O-]`, in data set [1], the EC50 came out at 80 µM. Moreover, the CC50 in data set [2] was above 100 µM.
As to `O=C(OCCN1C(=O)c2ccccc2C1=O)c1cccc(Cl)c1`, the EC50 in data set [1] is 93 µM. In addition, the CC50 in data set [2] was above 100 µM.
Consider `O=C(OCCN1C(=O)c2ccccc2C1=O)c1cccc(F)c1F`, for which the EC50 in data set [1] is above 100 µM. For the same molecule, in data set [2], the 50% cytotoxic concentration (CC50) was above 100 µM.
Consider `O=C(OCCN1C(=O)c2ccccc2C1=O)c1cc(F)cc(F)c1`, for which the EC50 in data set [1] is above 100 µM. Also, the CC50 in data set [2] is above 100 µM.
In the case of `O=C(OCN1C(=O)c2ccccc2C1=O)c1cc(F)ccc1F`, in data set [1], the EC50 is above 100 µM. The CC50 in data set [2] is above 100 µM.
For `O=C(OCCN1C(=O)c2ccccc2C1=O)c1cc([N+](=O)[O-])ccc1F`, the 50% effective concentration (EC50) in data set [1] was above 100 µM. The CC50 in data set [2] was above 100 µM.
Turning to `CC(CN1C(=O)c2ccccc2C1=O)OC(=O)c1ccc(Cl)c([N+](=O)[O-])c1` (racemic), the EC50 in data set [1] is above 34 µM. The CC50 in data set [2] was 34 µM.
In the case of `O=C(OCCS(=O)(=O)c1ccccc1)c1ccc(Cl)c(Cl)c1`, in data set [1], the EC50 is above 19 µM. The CC50 in data set [2] came to 19 µM.
In the case of `Cc1cc(C(=O)OCCN2C(=O)c3ccccc3C2=O)c(C)o1`, the EC50 in data set [1] was 28 µM. Moreover, the CC50 in data set [2] was above 100 µM.
On to `CCC(C(=O)OCCN1C(=O)c2ccccc2C1=O)c1ccccc1` (racemic), for which, in data set [1], the EC50 came to 16 µM. In data set [2], the CC50 was above 100 µM.
`O=C(OCCN1C(=O)c2ccccc2C1=O)c1cc(Cl)cc(Cl)c1`: the half-maximal effective concentration (EC50) in data set [1] came out at 27 µM. In addition, the half-maximal cytotoxic concentration (CC50) in data set [2] is above 100 µM.
Take `O=C(OC1Cc2cccc3cccc1c23)c1ccc(Cl)c([N+](=O)[O-])c1` (racemic): the EC50 in data set [1] was above 100 µM. For the same molecule, in data set [2], the CC50 was 1.6 µM.
With `O=C(OCCCN1C(=O)c2ccccc2C1=O)c1cc(F)ccc1F`, the EC50 in data set [1] is above 100 µM. In data set [2], the CC50 was above 100 µM.
As to `O=C(OC1Cc2cccc3cccc1c23)c1ccc(Cl)c(Cl)c1` (racemic), the EC50 in data set [1] was above 100 µM. For the same molecule, the CC50 in data set [2] amounted to 42 µM.
Take `O=C(OCCN1C(=O)c2ccccc2C1=O)c1cc(F)ccc1F`: the EC50 in data set [1] worked out at 0.2 µM. Moreover, in data set [2], the CC50 is above 100 µM.
`O=C(OCCN1C(=O)c2ccccc2C1=O)c1ccc(Cl)c(Cl)c1`: the EC50 in data set [1] is 0.7 µM. Also, in data set [2], the cytotoxic concentration (CC50) is above 100 µM.
Consider `O=C(OCCN1C(=O)c2ccccc2C1=O)c1ccc(F)c(F)c1`, for which, in data set [1], the EC50 was above 100 µM. Further, the CC50 in data set [2] is above 100 µM.
As for `Cc1cccc(C(=O)OCCN2C(=O)c3ccccc3C2=O)c1`, the EC50 in data set [1] amounted to 82 µM. Moreover, in data set [2], the 50% cytotoxic concentration (CC50) is above 100 µM.
For the molecule `O=C(OCN1C(=O)c2ccccc2C1=O)c1ccc(Cl)c([N+](=O)[O-])c1`, the 50% effective concentration (EC50) in data set [1] was above 11 µM. The CC50 in data set [2] turned out to be 11 µM.
With `Cc1ccc(F)cc1C(=O)OCCN1C(=O)c2ccccc2C1=O`, the EC50 in data set [1] was determined as 47 µM. Besides, the half-maximal cytotoxic concentration (CC50) in data set [2] was above 100 µM.
With `O=C(OCCN1C(=O)[C@H]2CCCC[C@H]2C1=O)c1ccc(Cl)c([N+](=O)[O-])c1`, the EC50 in data set [1] is above 28 µM. The CC50 in data set [2] was found to be 28 µM.
Turning to `O=C(OCCN1C(=O)c2ccccc2C1=O)c1ccc(Br)cc1`, the EC50 in data set [1] was above 100 µM. The CC50 in data set [2] is above 100 µM.
As for `O=C(OCCN1C(=O)c2ccccc2C1=O)c1c(F)cccc1F`, the EC50 in data set [1] is 49 µM. Also, the CC50 in data set [2] is above 100 µM.
Taken in the same sequence, the figures for `O=C(OCCN1C(=O)c2ccccc2C1=O)c1ccccc1Cl` were 80 µM and above 100 µM.
For the molecule `CC(CN1C(=O)c2ccccc2C1=O)OC(=O)c1cc(F)ccc1F` (racemic), in data set [1], the EC50 was above 100 µM. Besides, the CC50 in data set [2] is above 100 µM.
Turning to `O=C(OCCN1C(=O)[C@H]2CC=CC[C@H]2C1=O)c1cc(F)ccc1F`, in data set [1], the EC50 was above 100 µM. For the same molecule, the CC50 in data set [2] was above 100 µM.
Regarding `CCCCCc1ccc(C(=O)OCCN2C(=O)c3ccccc3C2=O)cc1`, the EC50 in data set [1] was 14 µM. Also, in data set [2], the CC50 is above 100 µM.
As for `O=C(OCCOc1ccc([N+](=O)[O-])cc1)c1ccc(Cl)c([N+](=O)[O-])c1`, in data set [1], the EC50 was above 47 µM. Further, the CC50 in data set [2] was determined as 47 µM.
Regarding `O=C(OCCN1C(=O)c2ccccc2C1=O)c1ccccc1`, the EC50 in data set [1] amounted to 55 µM. Besides, the CC50 in data set [2] is above 100 µM.
With `O=C(OCCCN1C(=O)c2ccccc2C1=O)c1ccc(Cl)c([N+](=O)[O-])c1`, the EC50 in data set [1] is above 100 µM. Also, the 50% cytotoxic concentration (CC50) in data set [2] is above 100 µM.
With `Cc1cc(C(=O)OCCN2C(=O)c3ccccc3C2=O)ccc1Br`, in data set [1], the EC50 amounted to 60 µM. Further, the CC50 in data set [2] is above 100 µM.
For `Cc1ccc2c(c1)C(=O)N(CCOC(=O)c1ccc(Cl)c([N+](=O)[O-])c1)C2=O`, the half-maximal effective concentration (EC50) in data set [1] is above 81 µM. Further, the CC50 in data set [2] turned out to be 81 µM.
For `O=C(OCCN1C(=O)c2ccccc2C1=O)c1cc(Cl)ccc1F`, in data set [1], the EC50 was above 100 µM. The half-maximal cytotoxic concentration (CC50) in data set [2] is above 100 µM.
As to `O=C(OCCN1C(=O)c2ccccc2C1=O)c1cc(F)ccc1Cl`, the EC50 in data set [1] is above 100 µM. Besides, the CC50 in data set [2] was above 100 µM.
For `O=C(OCCN1C(=O)c2ccccc2C1=O)c1ccc(Cl)c([N+](=O)[O-])c1`, the EC50 in data set [1] is 0.7 µM. Also, the CC50 in data set [2] is above 100 µM.
In the case of `O=C(OCCN1C(=O)c2ccccc2C1=O)c1cc(C(F)(F)F)ccc1F`, in data set [1], the EC50 is above 100 µM. In data set [2], the CC50 is above 100 µM.
Turning to `O=C(OCCN1C(=O)c2ccccc2C1=O)c1cccc([N+](=O)[O-])c1`, the EC50 in data set [1] worked out at 69 µM. Besides, in data set [2], the CC50 is above 100 µM.
For the molecule `O=C(OCCN1C(=O)[C@H]2CCCC[C@H]2C1=O)c1cc(F)ccc1F`, the EC50 in data set [1] is above 100 µM. The CC50 in data set [2] is above 100 µM.
As for `O=C(OCCc1c[nH]c2ccccc12)c1ccc(Cl)c([N+](=O)[O-])c1`, in data set [1], the EC50 was above 6 µM. Also, the CC50 in data set [2] stood at 6 µM.
In the case of `O=C(OCCN1C(=O)c2ccccc2C1=O)c1cc(F)ccc1Br`, the 50% effective concentration (EC50) is 90 µM in data set [3] and 35 µM in data set [1]. Moreover, the CC50 in data set [2] is above 100 µM. For the same molecule, the outcome in data set [4] and in data set [5] was inactive.
As for `O=C(OCCN1C(=O)c2ccccc2C1=O)c1cc([N+](=O)[O-])ccc1Cl`, the EC50 in data set [1] was above 30 µM. Further, the CC50 in data set [2] was 30 µM.
As to `O=C(OCCN1C(=O)c2ccccc2C1=O)c1ccc(Cl)nc1`, in data set [1], the EC50 is above 100 µM. Further, the CC50 in data set [2] was above 100 µM.
For the molecule `Cc1ccc2c(c1)C(=O)N(CCOC(=O)c1cc(F)ccc1F)C2=O`, in data set [1], the EC50 is above 100 µM. Further, the CC50 in data set [2] was above 100 µM.
On to `O=C(OCCN1C(=O)c2ccccc2C1=O)c1ccc([N+](=O)[O-])cc1Cl`, for which the EC50 in data set [1] was found to be 15 µM. Besides, in data set [2], the CC50 was above 100 µM.
With `O=C(OCCN1C(=O)[C@H]2CC=CC[C@H]2C1=O)c1ccc(Cl)c([N+](=O)[O-])c1`, the EC50 in data set [1] is above 36 µM. Further, in data set [2], the 50% cytotoxic concentration (CC50) came out at 36 µM.
For the molecule `CC(C)(C)c1ccc(C(=O)OCCN2C(=O)c3ccccc3C2=O)cc1`, the EC50 in data set [1] was above 92 µM. The CC50 in data set [2] came out at 92 µM.
`O=C(OCCN1C(=O)c2ccccc2C1=O)c1cccnc1Cl`: the EC50 in data set [1] is above 100 µM. Also, in data set [2], the CC50 is above 100 µM.
With `O=C(OCCN1C(=O)c2ccccc2C1=O)c1ccc2ccccc2c1`, the EC50 in data set [1] was above 100 µM. The CC50 in data set [2] was above 100 µM.
Consider `CC(C)(C)c1ccc2c(c1)C(=O)N(CCOC(=O)c1cc(F)ccc1F)C2=O`, for which the EC50 in data set [1] is above 100 µM. Also, in data set [2], the CC50 is above 100 µM.
Turning to `O=C(OCCN1C(=O)c2ccccc2C1=O)c1cccc(F)c1`, in data set [1], the half-maximal effective concentration (EC50) was found to be 75 µM. In addition, in data set [2], the CC50 is above 100 µM.
Consider `O=C(/C=C/c1ccccc1)OCCN1C(=O)c2ccccc2C1=O`, for which, in data set [1], the EC50 came to 50 µM. Also, the CC50 in data set [2] is above 100 µM.
Taken in the same sequence, the figures for `O=C(OCCN1C(=O)c2ccccc2C1=O)c1ccc(F)cc1F` were above 100 µM and above 100 µM.
The like results for `Cc1cc(C(=O)OC2Cc3cccc4cccc2c34)ccc1Br` (racemic) were, in that order, above 100 µM and 8 µM.
In the case of `O=C(OCCOc1ccc(Br)cc1)c1ccc(Cl)c([N+](=O)[O-])c1`, the EC50 in data set [1] is above 59 µM. In addition, in data set [2], the CC50 stood at 59 µM.
